Results as given in patent US7855076B2, “Use of discoidin domain receptor 1 (DDR1) and agents that affect the DDR1/collagen pathway” (The United States of America as represented by the …, priority 2002, dated 2010).

Columns and labels:
DDR1a = molecular target: T1, DDR1a (Homo sapiens, UniProt Q08345); test: Autophosphorylation of DDR1a overexpressed in THP-1 cells; type: cell-based
T1 construct: The full-length human DDR1a or DDR1b cDNA was ligated into the EcoRI/BamHI site of the retroviral vector pLXSN; expressed in transfected cells; host or cells: THP-1 human monocytic leukemia cells, retroviral vector pLXSN, G418-selected clones
Procedure: (§1) Using the retrovirus-infected cell lines, the effect of collagen type I on the phosphorylation of DDR1 proteins was tested. Two million cells in 3 ml complete medium were added onto collagen type I-coated plastic plates and incubated at 37° C. for various times. Cell lysates were prepared and immunoprecipitation was performed with the anti-DDR1 antibody. One-fourth of the immunoprecipitated samples was subjected to SDS-PAGE and Western blotting. The membranes were blotted with anti-pTyr and anti-DDR1 antibody. Low levels of constitutive autophosphorylation of both receptors were detected. The levels of autophosphorylation increased slightly at 15 minutes and peaked at 90 minutes after activation of the cells on collagen type I-coated plastic plates. The peak level was maintained for up to 240 minutes for DDR1a, which is consistent with the previously reported delayed kinetics of […] autophosphorylation in other cell types (Vogel FASEB J, (Suppl.), S77-S82, 1999). In contrast, autophosphorylation of DDR1b decreased after 90 minutes of collagen-activation.
(§2) Parental, mock, DDR1a- or DDR1b-overexpressing THP-1 cells were plated at 5×10^6/ml on uncoated tissue culture plates and stimulated with PMA (10 nM) for 24 hours, and then starved in RMPI 1640 without FCS for 10 hours. Subsequently cells were washed three times with PBS, and then incubated in the presence of 50 μg/ml collagen type I for various times.
(§3) Ten million cells were lysed on ice for 20 minutes in a buffer containing 50 mM NaCl, 20 mM Tris-HCl, 50 mM sodium fluoride, 30 mM Na4P2O7, 5 mM EGTA, 3 mM sodium orthovanadate, 1% Triton X-100, 1 mg/ml leupeptin, 1 mM PMSF, 1 mg/ml aprotinin, 1 mg/ml pepstatinA and 100 μM sodium orthovanadate treated with H2O2. […]
(§4) Eluted proteins were analyzed on 8% polyacrylamide gels by SDS-PAGE and transferred electrophoretically to nitrocellulose membranes at 150 mA for 1 hour by a semi-dry system. […] To detect phosphorylated or nonphosphorylated p38 MAP kinase or ATF-2, 20 μl of cell lysates were directly mixed with 20 μl of sample buffer and then analyzed.

DDR1b = molecular target: T2, DDR1b (Homo sapiens, UniProt Q08345); test: Autophosphorylation of DDR1b overexpressed in THP-1 cells; type: cell-based
T2 construct: one of the clones, clone 11B, contained the full-length human DDR1b cDNA; expressed in transfected cells; host or cells: THP-1 human monocytic leukemia cells, retroviral vector pLXSN, G418-selected clones
Procedure: as §1, §2, §3, §4

MCP-1 mRNA = MCP-1 mRNA expression in PMA-treated THP-1 cells by Northern blotting; type: cell-based, human
Procedure: The effect of collagen-activation on the expression of MCP-1 mRNA in PMA-treated parental, mock-transduced, DDR1a-overexpressing, and DDR1b-overexpressing THP-1 cells was measured by Northern blotting. THP-1 cells were cultured at the cell density of 5×10^6, cells/ml in the complete medium in the presence of 10 nM PMA in 6 well tissue culture plates that were either uncoated or collagen-coated. Total RNA was extracted from each culture by using TRIZOL reagent® and Northern blot analysis was performed as described (Yoshimura, J. Immunol. 150:5025, 1993). IL-1β cDNA was obtained by RT-PCR from a human monocyte cDNA library using the following primer pair: sense primer 5′-[…]-3′ (SEQ ID NO: 13) and anti-sense primer 5′-[…]-3′ (SEQ ID NO: 14). Each cDNA was labeled with [α-^32P]dCTP using Rediprime™ II random prime labeling system (Amersham Pharmacia Biotech).

IκBα = test: IκB degradation in PMA-treated THP-1 cells, Western blotting; type: cell-based, human; conditions: 10 nM PMA
Procedure: Mock-transduced and DDR1b-overexpressing THP-1 cells were plated at 5×10^6cells/ml and treated with 10 nM PMA on collagen-coated plates for varous times. Ten million cells were lysed on ice for 20 minutes in a buffer containing 50 mM NaCl, 20 mM Tris-HCl, 50 mM sodium fluoride, 30 mM Na4P2O7, 5 mM EGTA, 3 mM sodium orthovanadate, 1% Triton X-100; 1 mg/ml leupeptin, 1 mM PMSF, 1 mg/ml aprotinin, 1 mg/ml pepstatin A and 100 μM sodium orthovanadate in […] lysates were spun and the supernatants were collected. Each sample was boiled in double-strength sample buffer for 10 minutes, electrophoresed on 10% polyacrylamide gels by SDS-PAGE, and transferred electrophoretically to nitrocellulose membranes at 150 mA for 1 hour by a semi-dry system. The membranes were incubated with mouse monoclonal anti-IκB antibody followed by sheep anti-mouse IgG coupled with horseradish peroxidase. Peroxidase activity was visualized by the Enhanced Chemiluminescence Detection System (Amersham).

[1] = PMA-treated cells, 50 μg/ml collagen type I
[2] = collagen type I-coated plates, cells not PMA-treated

T1 sequence (Q08345 19-876 isoform Q08345-2 limits assumed): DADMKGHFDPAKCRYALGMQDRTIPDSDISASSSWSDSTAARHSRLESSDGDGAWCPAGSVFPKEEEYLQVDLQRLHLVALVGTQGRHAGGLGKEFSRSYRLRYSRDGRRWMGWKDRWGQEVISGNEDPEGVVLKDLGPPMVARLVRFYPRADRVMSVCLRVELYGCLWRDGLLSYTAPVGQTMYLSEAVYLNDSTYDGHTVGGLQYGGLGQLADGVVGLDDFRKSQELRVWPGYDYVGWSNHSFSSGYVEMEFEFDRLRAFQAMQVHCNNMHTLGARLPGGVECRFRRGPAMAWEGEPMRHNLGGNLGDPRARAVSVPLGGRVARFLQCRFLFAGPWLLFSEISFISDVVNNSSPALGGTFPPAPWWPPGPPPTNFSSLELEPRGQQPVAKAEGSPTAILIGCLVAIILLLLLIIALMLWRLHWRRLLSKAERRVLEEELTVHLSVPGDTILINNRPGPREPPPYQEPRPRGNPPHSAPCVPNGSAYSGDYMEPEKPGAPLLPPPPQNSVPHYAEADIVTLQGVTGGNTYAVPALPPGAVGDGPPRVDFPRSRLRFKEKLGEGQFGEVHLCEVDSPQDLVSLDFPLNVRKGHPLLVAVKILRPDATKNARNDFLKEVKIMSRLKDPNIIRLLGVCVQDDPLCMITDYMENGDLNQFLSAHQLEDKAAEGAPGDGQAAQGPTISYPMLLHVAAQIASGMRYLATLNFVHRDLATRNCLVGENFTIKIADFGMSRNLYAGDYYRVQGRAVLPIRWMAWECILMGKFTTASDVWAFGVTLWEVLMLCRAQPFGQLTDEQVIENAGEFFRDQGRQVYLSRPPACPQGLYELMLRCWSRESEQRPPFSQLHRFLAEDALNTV
T2 sequence (Q08345 19-913): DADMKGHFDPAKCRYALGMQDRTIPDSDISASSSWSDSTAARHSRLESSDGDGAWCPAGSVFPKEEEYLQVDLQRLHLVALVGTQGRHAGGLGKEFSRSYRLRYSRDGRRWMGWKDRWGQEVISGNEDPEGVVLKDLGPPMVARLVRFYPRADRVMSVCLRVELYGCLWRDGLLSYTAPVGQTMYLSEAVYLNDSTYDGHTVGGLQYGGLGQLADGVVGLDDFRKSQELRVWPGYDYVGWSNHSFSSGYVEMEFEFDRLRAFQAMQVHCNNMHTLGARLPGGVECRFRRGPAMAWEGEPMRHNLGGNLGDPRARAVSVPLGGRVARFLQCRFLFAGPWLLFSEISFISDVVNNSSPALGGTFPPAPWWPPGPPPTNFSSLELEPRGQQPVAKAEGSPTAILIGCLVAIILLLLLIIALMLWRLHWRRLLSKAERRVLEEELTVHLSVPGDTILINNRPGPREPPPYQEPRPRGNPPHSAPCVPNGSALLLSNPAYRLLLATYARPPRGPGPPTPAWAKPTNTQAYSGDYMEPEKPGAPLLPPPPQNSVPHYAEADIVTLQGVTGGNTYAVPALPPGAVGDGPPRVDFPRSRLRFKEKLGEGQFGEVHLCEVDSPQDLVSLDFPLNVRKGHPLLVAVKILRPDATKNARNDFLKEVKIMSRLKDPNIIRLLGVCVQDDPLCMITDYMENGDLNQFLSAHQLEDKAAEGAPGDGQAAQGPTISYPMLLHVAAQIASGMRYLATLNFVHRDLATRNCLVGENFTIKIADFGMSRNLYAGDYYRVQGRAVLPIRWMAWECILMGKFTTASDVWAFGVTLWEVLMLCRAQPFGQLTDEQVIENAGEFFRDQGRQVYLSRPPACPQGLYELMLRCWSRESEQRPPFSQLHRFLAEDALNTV

- time autophosphorylation first detected (DDR1a; [1]): 90 min
- time of peak autophosphorylation (DDR1a; [1]): 4 h
- time of peak autophosphorylation (DDR1a; [2]): 1.5 h
- time autophosphorylation detectable (DDR1b; [1]): 30 min
- time of peak autophosphorylation (DDR1b; [1]): 60 min
- time of peak autophosphorylation (DDR1b; [2]): 90 min
Substance: collagen
- level of MCP-1 mRNA expression (MCP-1 mRNA; PMA-treated DDR1b-overexpressing cells on collagen-coated plates): rapidly up-regulated
- MCP-1 mRNA expression (MCP-1 mRNA; PMA-treated parental cells): no effect
- amounts of IκBα (IκBα; DDR1b-overexpressing cells, at 2 and 3 hours): decreased
- level of IκBα (IκBα; mock-transduced cells): unchanged
